The results in this text go back to patent US10004701B2, “Methods and compositions for treating infection” (UNIVERSITY OF ROCHESTER, priority 2012, dated 2018).

Holding throughout (test): AK assay 384-well format, Prestwick library screening
One test deals with E. faecium. The test is classed as cell-based, Enterococcus faecium. To be noted: 50 μM final drug concentration; for fold induction at 50 µM: Enterococcus faecium, 3 h.
Test [1] relates to S. aureus strain USA300-0114. The test is classed as cell-based, Staphylococcus aureus. Conditions: 50 μM final drug concentration; for fold induction at 50 µM: Staphylococcus aureus, USA300, 3 h.
For the next test, the system named is K. pneumoniae. Format: cell-based, Klebsiella pneumoniae. To be noted: 50 μM final drug concentration; for fold induction at 50 µM: Klebsiella pneumoniae, 3 h.
The subject of test [2] is A. baumannii strain 98-37-09. The test is classed as cell-based, Acinetobacter baumannii. To be noted: 50 μM final drug concentration; for fold induction at 50 µM: Acinetobacter baumannii, 983709, 3 h.
The test system of a further test is P. aeruginosa. Format: cell-based, Pseudomonas aeruginosa. To be noted: 50 μM final drug concentration; for fold induction at 50 µM: Pseudomonas aeruginosa, 3 h.
For another test, the system named is E. cloacae. Format: cell-based, Enterobacter cloacae. Conditions: 50 μM final drug concentration; for fold induction at 50 µM: Enterobacter cloacae, 3 h.
A further test has as its system E. coli. Format: cell-based, Escherichia coli. To be noted: 50 μM final drug concentration; for fold induction at 50 µM: Escherichia coli, 3 h.
[3] abbreviates: planktonic E. faecium, […], read-out: AK-based Prestwick library screening result, E. faecium (fold increase in extracellular AK activity).
[4] abbreviates: planktonic S. aureus, […], read-out: AK-based Prestwick library screening result, S. aureus (fold increase in extracellular AK activity).
[5] abbreviates: planktonic K. pneumoniae, […], read-out: AK-based Prestwick library screening result, K. pneumoniae (fold increase in extracellular AK activity).
[6] abbreviates: planktonic A. baumannii, […], read-out: AK-based Prestwick library screening result, A. baumannii (fold increase in extracellular AK activity).
Where [7] appears, read: planktonic P. aeruginosa, […], read-out: AK-based Prestwick library screening result, P. aeruginosa (fold increase in extracellular AK activity).
Setting [8] is: planktonic E. cloacae, […], read-out: AK-based Prestwick library screening result, E. cloacae (fold increase in extracellular AK activity).
[9] abbreviates: planktonic E. coli, […], read-out: AK-based Prestwick library screening result, E. coli (fold increase in extracellular AK activity).
The mark [10] stands for this setting: […], read-out: AK-based Prestwick Library Screening Results, E. faecium (fold increase in extracellular AK activity).
The mark [11] stands for this setting: […], read-out: AK-based Prestwick Library Screening Results, S. aureus (fold increase in extracellular AK activity).
Where [12] appears, read: […], read-out: AK-based Prestwick Library Screening Results, K. pneumoniae (fold increase in extracellular AK activity).
[13] abbreviates: […], read-out: AK-based Prestwick Library Screening Results, A. baumannii (fold increase in extracellular AK activity).
Where [14] appears, read: […], read-out: AK-based Prestwick Library Screening Results, P. aeruginosa (fold increase in extracellular AK activity).
Where [15] appears, read: […], read-out: AK-based Prestwick Library Screening Results, E. cloacae (fold increase in extracellular AK activity).
Setting [16] is: […], read-out: AK-based Prestwick Library Screening Results, E. coli (fold increase in extracellular AK activity).
Where [17] appears, read: planktonic, […], read-out: AK-based Prestwick Library Screening Results, E. faecium (fold increase in extracellular AK activity).
Where [18] appears, read: planktonic, […], read-out: AK-based Prestwick Library Screening Results, S. aureus (fold increase in extracellular AK activity).
Where [19] appears, read: planktonic, […], read-out: AK-based Prestwick Library Screening Results, K. pneumoniae (fold increase in extracellular AK activity).
Setting [20] is: planktonic, […], read-out: AK-based Prestwick Library Screening Results, A. baumannii (fold increase in extracellular AK activity).
[21] abbreviates: planktonic, […], read-out: AK-based Prestwick Library Screening Results, P. aeruginosa (fold increase in extracellular AK activity).
The mark [22] stands for this setting: planktonic, […], read-out: AK-based Prestwick Library Screening Results, E. cloacae (fold increase in extracellular AK activity).
[23] abbreviates: planktonic, […], read-out: AK-based Prestwick Library Screening Results, E. coli (fold increase in extracellular AK activity).

Structures can show the parent of a compound that is named as a salt. Where two headings read alike, the source gives them in different places.

Take `C[C@@H]1NCCc2cc(O)c(O)cc21` [Salsolinol hydrobromide]: the fold induction at 50 µM in the test on E. faecium (planktonic, cutoff for positive 3-fold increase, read-out: AK-based Prestwick Library Screening Results, E. faecium (fold increase in extracellular AK activity)) turned out to be 1; in test [1] (planktonic, cutoff for positive 3-fold increase, read-out: AK-based Prestwick Library Screening Results, S. aureus (fold increase in extracellular AK activity)), 1.1; with K. pneumoniae (planktonic, cutoff for positive 3-fold increase, read-out: AK-based Prestwick Library Screening Results, K. pneumoniae (fold increase in extracellular AK activity)) it was 1.2; in test [2] (planktonic, cutoff for positive 3-fold increase, read-out: AK-based Prestwick Library Screening Results, A. baumannii (fold increase in extracellular AK activity)), 1.2; in the test with P. aeruginosa (planktonic, cutoff for positive 3-fold increase, read-out: AK-based Prestwick Library Screening Results, P. aeruginosa (fold increase in extracellular AK activity)), 1.1; in the test with E. cloacae (planktonic, cutoff for positive 3-fold increase, read-out: AK-based Prestwick Library Screening Results, E. cloacae (fold increase in extracellular AK activity)), 1.5. The fold induction at 50 µM in the test with E. coli (planktonic, cutoff for positive 3-fold increase, read-out: AK-based Prestwick Library Screening Results, E. coli (fold increase in extracellular AK activity)) was found to be 1.2.
Consider `C[n+]1cc2c3c(ccc2c2ccc4cc5c(cc4c21)OCO5)OCO3` [Sanguinarine], for which the fold induction at 50 µM in the test with E. faecium (setting [3]) worked out at 0.3; in test [1] (setting [4]), 0.1; with K. pneumoniae (setting [5]), 0.2; in test [2] (setting [6]), 0.7; in the test with P. aeruginosa (setting [7]), 0.3; with E. cloacae (setting [8]) it was 0.9. The fold induction at 50 µM in the test on E. coli (setting [9]) came out at 0.6.
With `CC(C)(C)NC(=O)[C@@H]1C[C@@H]2CCCC[C@@H]2CN1C[C@@H](O)[C@H](Cc1ccccc1)NC(=O)[C@H](CC(N)=O)NC(=O)c1ccc2ccccc2n1` [Saquinavir mesylate], the fold induction at 50 µM in the test on E. faecium (setting [3]) was 1.2; in test [1] (setting [4]), 0.9; with K. pneumoniae (setting [5]), 1.1; in test [2] (setting [6]), 1.5; in the test on P. aeruginosa (setting [7]) it was 1; in the test with E. cloacae (setting [8]), 1.8. Moreover, the fold induction at 50 µM with E. coli (setting [9]) came out at 1.3.
`Br.C[N+]1([O-])[C@@H]2CC(OC(=O)[C@H](CO)c3ccccc3)C[C@H]1[C@@H]1O[C@@H]12` (stereo partly drawn) [Scopolamin-N-oxide hydrobromide]: the “AK-based Prestwick Library Screening Results: E. faecium (increase in extracellular AK activity)” value with E. faecium (planktonic E. faecium, 384-well, […]) is listed as 1.1. For the same compound, in test [1] (planktonic S. aureus, 384-well, […]), the “AK-based Prestwick Library Screening Results: S. aureus (increase in extracellular AK activity)” value turned out to be 1.4. For the same compound, the “AK-based Prestwick Library Screening Results: K. pneumoniae (increase in extracellular AK activity)” value with K. pneumoniae (planktonic K. pneumoniae, 384-well, […]) was 1.2. Further, the “AK-based Prestwick Library Screening Results: A. baumannii (increase in extracellular AK activity)” value in test [2] (planktonic A. baumannii, 384-well, […]) came out at 1.4. In the test on P. aeruginosa (planktonic P. aeruginosa, 384-well, […]), the “AK-based Prestwick Library Screening Results: P. aeruginosa (increase in extracellular AK activity)” value came to 1.3. In addition, the “AK-based Prestwick Library Screening Results: E. cloacae (increase in extracellular AK activity)” value in the test with E. cloacae (planktonic E. cloacae, 384-well, […]) is on record as 1.5. For the same compound, the “AK-based Prestwick Library Screening Results: E. coli (increase in extracellular AK activity)” value in the test with E. coli (planktonic E. coli, 384-well, […]) is 1.2.
Regarding `CN1[C@@H]2C[C@@H](OC(=O)[C@H](CO)c3ccccc3)C[C@H]1[C@@H]1O[C@@H]12` [Scopolamine hydrochloride], the fold induction at 50 µM was 1 with E. faecium (setting [10]); 1.2 in test [1] (setting [11]); 1.1 in the test with K. pneumoniae (setting [12]); 1.2 in test [2] (setting [13]); 1.1 in the test on P. aeruginosa (setting [14]); 1.5 in the test with E. cloacae (setting [15]). Moreover, in the test on E. coli (setting [16]), the fold induction at 50 µM was 1.2.
Consider `COc1cc2ccc(=O)oc2cc1O` [Scopoletin], for which the fold induction at 50 µM in the test with E. faecium (cutoff for positive-scoring molecules 3-fold increase, read-out: AK-based Prestwick Library Screening Results, E. faecium (fold increase in extracellular AK activity)) is 0.9; in test [1] (cutoff for positive-scoring molecules 3-fold increase, read-out: AK-based Prestwick Library Screening Results, S. aureus (fold increase in extracellular AK activity)) it was 0.3; with K. pneumoniae (cutoff for positive-scoring molecules 3-fold increase, read-out: AK-based Prestwick Library Screening Results, K. pneumoniae (fold increase in extracellular AK activity)), 0.4; in test [2] (cutoff for positive-scoring molecules 3-fold increase, read-out: AK-based Prestwick Library Screening Results, A. baumannii (fold increase in extracellular AK activity)) it was 0.4; in the test with P. aeruginosa (cutoff for positive-scoring molecules 3-fold increase, read-out: AK-based Prestwick Library Screening Results, P. aeruginosa (fold increase in extracellular AK activity)) it was 0.4; in the test with E. cloacae (cutoff for positive-scoring molecules 3-fold increase, read-out: AK-based Prestwick Library Screening Results, E. cloacae (fold increase in extracellular AK activity)) it was 0.3. In the test on E. coli (cutoff for positive-scoring molecules 3-fold increase, read-out: AK-based Prestwick Library Screening Results, E. coli (fold increase in extracellular AK activity)), the fold induction at 50 µM came to 0.4.
As for `COc1cc2c(cc1O)[C@@H]1Cc3ccc(OC)c(O)c3CN1CC2` [Scoulerine], the fold induction at 50 µM in the test on E. faecium (setting [17]) amounted to 1; in test [1] (setting [18]), 1; in the test with K. pneumoniae (setting [19]), 1; in test [2] (setting [20]) it was 1.3; in the test on P. aeruginosa (setting [21]) it was 1.1; in the test on E. cloacae (setting [22]) it was 1.6. In the test with E. coli (setting [23]), the fold induction at 50 µM was found to be 1.2.
Consider `O=C1C=C2C=C[C@@H]3C[C@@]2(O1)[C@H]1CCCCN31` [Securinine], for which the fold induction at 50 µM came to 1 with E. faecium (setting [10]); 1.1 in test [1] (setting [11]); 0.8 in the test on K. pneumoniae (setting [12]); 1.1 in test [2] (setting [13]); 1.2 with P. aeruginosa (setting [14]); 1.6 with E. cloacae (setting [15]). The fold induction at 50 µM with E. coli (setting [16]) came out at 1.3.
As to `C#CCN(C)[C@H](C)Cc1ccccc1` [Selegiline hydrochloride], the fold induction at 50 µM came out at 1 in the test with E. faecium (setting [17]); 1.1 in test [1] (setting [18]); 1.2 in the test with K. pneumoniae (setting [19]); 1.1 in test [2] (setting [20]); 1.2 with P. aeruginosa (setting [21]); 1.6 with E. cloacae (setting [22]). The fold induction at 50 µM in the test on E. coli (setting [23]) stood at 1.3.
